# Experimental data from patent US10584127B2, “3,3-difluoropiperidine carbamate heterocyclic compounds as NR2B NMDA receptor antagonists” (Rugen Holdings (Cayman) Limited, priority 2015, dated 2020).
# Experiments:
# [1] = test system: NMDA receptor (all subtypes), native rat brain receptors; experiment: [3H] MK-801 radioligand binding assay, rat brain membranes; conditions: 2 nM [3H] MK-801, rat brain membranes
# Method: This example describes NMDA receptor binding assays using two different radioligands, [^3H] […] An established binding assay using the non-selective NMDA receptor ligand [^3H] […] The binding assay method using the NR2B selective receptor ligand [^3H] […] This assay serves as a selective measure of NR2B receptor binding activity in native rat brain receptors. Briefly, the brains of Male Wistar rats were homogenized (Polytron) before centrifugation at 40,000×g for 15 minutes at 4° C. After 2 washes, the final pellet was homogenized and stored at −80° C. The protein concentration was determined by Bradford assay.
# Test compounds were solubilized at 10 mM in DMSO. Then the dilutions were performed with a constant solvent concentration (1% DMSO) in the assay.
# After incubation for 4.5 h at room temperature, the assays were filtered on GF/B filters pretreated with 0.3% (v/v) PEI with a Brandel system for [^3H] […] The experiment was performed in duplicate (n=2).
# [2] = test system: pentylenetetrazole-induced convulsions; experiment: Pentylenetetrazole (PTZ) Seizure Test; assay type: in vivo, rats; conditions: 10 mg/kg p.o., mesylate salt, PTZ 100 mg/kg s.c.
# Method: Rats, placed in individual macrolon cages (25×19×13 cm), were injected with pentylenetetrazole (PTZ) (100 mg/kg s.c.). The occurrence and latency of clonic and tonic convulsions and death were noted over a 30 minute period. 15 rats were studied per group. The test was performed blind.
# Test compound E1-8.2 was administered as the free base.
# Compounds were evaluated typically using 0.5% dimethylsulfoxide, 4% hydroxypropyl-b-cyclodextrin water as a vehicle at 1 or more doses (e.g., 1, 3 and 10 mg/kg), administered p.o. 30 minutes before PTZ, and compared with a vehicle control group. Diazepam (16 mg/kg p.o.), administered 60 minutes before PTZ, was used as reference substance. The experiment was performed over 2 separate sub-experiments with N=7 to 8 animals per group and per sub-experiment. Quantitative data (latencies) with the test substance was analyzed by comparing treated groups with vehicle control using Kruskal-Wallis test followed by Mann-Whitney U test. Quantitative data with the reference substance was analyzed using Mann-Whitney U test. Quantal data (frequencies) was analyzed by comparing treated groups with vehicle control using Fisher's Exact Probability tests (*=p<0.05; **=p<0.01; ***=p<0.001).
# CYP2D6 = CYP2D6 (Homo sapiens (Human), UniProt P10635); experiment: CYP P450 enzyme inhibition, pooled human liver microsome; assay type: in vitro ADME; conditions: HLM, dextromethorphan 5 μM
# Chain of CYP2D6 (P10635 whole entry): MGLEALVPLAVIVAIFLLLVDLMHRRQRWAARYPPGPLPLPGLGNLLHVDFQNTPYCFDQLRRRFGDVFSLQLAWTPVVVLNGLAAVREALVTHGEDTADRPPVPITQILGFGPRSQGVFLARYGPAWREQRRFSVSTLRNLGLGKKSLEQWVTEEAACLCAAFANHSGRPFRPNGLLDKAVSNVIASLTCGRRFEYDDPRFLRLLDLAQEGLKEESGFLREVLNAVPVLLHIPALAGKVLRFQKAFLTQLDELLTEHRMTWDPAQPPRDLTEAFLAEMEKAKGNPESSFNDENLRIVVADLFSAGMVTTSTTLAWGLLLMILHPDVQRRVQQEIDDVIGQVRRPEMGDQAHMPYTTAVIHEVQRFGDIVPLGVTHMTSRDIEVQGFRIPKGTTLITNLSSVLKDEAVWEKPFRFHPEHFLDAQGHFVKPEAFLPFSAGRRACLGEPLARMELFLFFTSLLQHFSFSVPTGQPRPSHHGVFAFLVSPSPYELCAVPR
# Method: Those CYP isoforms and their corresponding probe substrates are as follows: CYP1A2 (phenacetin, 30 μM), CYP2C9 (tolutamide, 100 μM), CYP2C19 (S-mephenytoin, 40 μM), CYP2D6 (dextromethorphan, 5 μM) and CYP3A4 (midazolam, 1 μM). All probe substrates were used at concentrations near or below their Kms. For experiment, a reaction mixture of test compound at 10 μM or in serial dilution, CYP probe substrate described above and 0.2 mg/mL pooled HLM in phosphate buffer, pH 7.4 in a final volume of 200 μL was pre-incubated at 37° C. for 10 minutes in triplicate. The reaction was initiated by addition of NADPH at final concentration of 1 mM. The reaction was terminated after 10 minutes (CYP1A2, CYP2D6 and CYP3A4) or 30 minutes (CYP2C9 and CYP2C19) by addition of 100 μL ice-cold acetonitrile with internal standard (IS). The samples were then centrifuged at 13,000 rpm and the supernatants were injected to LC-MS/MS (Agilent Technologies) to quantify the concentration of the specific metabolites of the probe substrates formed by individual CYP450 isoforms. The inhibition ratio is calculated as: (Mt−M0)/Mwater×100% in which Mt and M0 represent the concentrations of the specific probe substrate metabolite, which was formed by individual CYP450 isoform, at the beginning and end of the reaction in the presence of test compound; while Mwater represents the concentration of the specific metabolite at the end of the reaction in the absence of test compound. Test compound concentration-dependent response data experiments performed in triplicate.
structure (smiles),measurement,setting,value
"Cc1ccc(COC(=O)N2CC[C@H](CNc3nccn4cnnc34)C(F)(F)C2)cc1 [Compound E1-1.2, (+)-R-4-methylbenzyl 4-(([1,2,4]triazolo[4,3-a]pyrazin-8-ylamino)methyl)-3,3-difluoropiperidine-1-carboxylate]",partial effect on [3H] MK-801 binding,[1],40%
same,"latency to death, change vs vehicle controls",[2],+35%
same,"number of deaths, change vs vehicle controls",[2],−91%
same,CYP2D6 @ 10 μM (%),CYP2D6,14%
